Measurements as given in paper PMC9685055, “Biological activity of new bioactive steroids deriving from biotransformation of cortisone” (Microbial Cell Factories, 2022).

How the values were obtained:
cyclooxygenase (COX) = target: T1, cyclooxygenase (COX) (Ovis aries, UniProt P05979); experiment: Cyclooxygenase inhibitory assay (fluorescence COX activity kit); format: biochemical; conditions: purified COX preparation, 0.1, 1, 10 and 100 µM, 5 min at 25 °C
T1 construct: purchased Cayman 700200
T1 sequence (P05979 25-600): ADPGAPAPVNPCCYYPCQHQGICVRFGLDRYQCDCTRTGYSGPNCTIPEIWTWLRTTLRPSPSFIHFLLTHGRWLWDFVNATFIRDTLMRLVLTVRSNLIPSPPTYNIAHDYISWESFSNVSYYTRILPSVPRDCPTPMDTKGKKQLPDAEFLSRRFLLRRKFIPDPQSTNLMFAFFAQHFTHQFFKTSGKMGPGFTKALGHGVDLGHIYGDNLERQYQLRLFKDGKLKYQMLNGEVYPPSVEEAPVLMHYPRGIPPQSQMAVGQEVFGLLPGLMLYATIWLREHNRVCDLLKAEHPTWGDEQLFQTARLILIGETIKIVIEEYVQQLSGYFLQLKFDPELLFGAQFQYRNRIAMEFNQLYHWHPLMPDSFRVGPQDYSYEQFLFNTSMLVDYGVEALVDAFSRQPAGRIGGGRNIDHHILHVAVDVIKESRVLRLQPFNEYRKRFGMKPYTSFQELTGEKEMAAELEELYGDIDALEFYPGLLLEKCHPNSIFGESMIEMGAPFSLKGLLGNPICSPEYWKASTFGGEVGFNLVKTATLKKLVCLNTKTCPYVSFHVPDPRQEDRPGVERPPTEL
Procedure: Cyclooxygenase (COX) activity assay was determined by using a fluorescence COX activity assay kit (Cayman, No. 700200) for detecting COX-1 and COX-2 activity in purified enzyme and tissue homogenate preparations. The assay was conducted by monitoring the appearance of fluorescent compound resofurin in accordance to the supplier recommendation. Aspirin (acetylsalicylic acid; 50 µM) served as positive control. The test compounds were dissolved in 1–2% DMSO (v/v) at 4 different concentrations (0.1, 1, 10 and 100 µM) and added to a purified COX preparation. A 1–2% DMSO solution was added to control plates. The plates were shaken for a few seconds and incubated for 5 min at 25 °C. The fluorescence was measured by using an excitation wavelength of 540 nm and an emission wavelength of 590 nm. Average fluorescent values were calculated for all the samples (n = 3/group) in order to determine the percentage of inhibition in respect to control (i.e. untreated) plates.

[1] = system: Salmonella typhimurium TA100; experiment: Ames test (plate incorporation), strain TA100; format: cell-based
Procedure: Mutagenicity assay was performed following the plate incorporation method with the histidine-requiring Salmonella typhimurium mutant TA98 and TA100 strains. All strains (100 µl per plate of fresh overnight cultures) were checked with and without the addition of 0.5 mL of a 5% S9 exogenous metabolic activator (S9 mix). The lyophilized post-mitochondrial supernatant S9 mix (Aroclor 1254-induced, Sprague–Dawley male rat liver in 0.154 M KCl solution, Molecular Toxicology, Inc., Boone, NC, USA), commonly used for the activation of pro-mutagens to mutagenic metabolites, was stored at− 80 °C before use. The concentration tested for all the samples were 1, 5, 10, 50, 100 µL/plate of a stock solution 100 mg/mL.
A fully-grown culture of the appropriate tester strain (0.1 mL) was added to 2 mL Molten Top Agar (0.6% agar, 0.6% NaCl, 0.5 mM L-histidine/biotin solution) at 46 °C, together with 0.1 mL of each sample solution at different concentrations, and 0.5 mL S9 mix for assays with metabolic activation or 0.5 mL of phosphate buffer pH 7.4 to test without metabolic activation. The ingredients were thoroughly mixed and poured onto minimal glucose agar plates (1.5% agar in 2% Vogel–Bonner medium E with 5% glucose solution).
DMSO was used as a negative control (100 µl/plate). Positive controls were prepared as follows: 2-aminoanthracene (2 µg/plate) and 2-nitrofluorene (2 µg/plate) for TA98 with and without metabolic activator (S9 mix) respectively; 2-aminoanthracene (2 µg/plate) and sodium azide (2 µg/plate) for TA100, with and without metabolic activator (S9 mix) respectively. The plates were incubated at 37 °C for 72 h and then the his^+ revertants were checked and counted using a Colony Counter 560 Suntex (Antibioticos, Italy). A sample was considered mutagenic when the observed number of colonies was at least twofold over the spontaneous level of revertants. All determinations were made in triplicate. Relative standard deviations were computed using the statistical software […] 6.0 (StatSoft Italia srl).

[2] = system: IL-1α secretion in TNFα-stimulated HaCaT cells; experiment: TNFα-induced IL-1α secretion, ELISA; format: cell-based, human; conditions: 10 μM pretreatment 24 h, then 10 ng/mL TNFα 1 h, supernatant 24 h later
Procedure: HaCaT cells were cultured with Dulbecco’s modified Eagle’s medium High Glucose (Lonza, Milan, Italy) supplemented with 10% FBS, 100 U/mL penicillin, 100 μg/mL streptomycin and 2 mM L-glutamine as previously described. Cells were maintained in a humidified incubator at 37 °C with 5% CO2 and incubated until the monolayer was 80% confluent. Medium was changed every 2 days.
HaCaT cells were pretreated with or without 10 μM of both SCA and SCB for 24 h. Stock solutions of the two compounds were prepared in DMSO immediately before use and diluted to the final concentration in the culture medium. In some sets of experiments, betamethasone-17-valerate (10 µg/mL) served as a positive control; dimethyl sulfoxide (DMSO) served as a solvent control. After the pretreatments, cells were stimulated with 10 ng/mL TNFα for 1 h to induce the NFκB signaling pathway. Then, media were replaced with fresh culture medium. […]
IL-1α secretion, after the treatment with 10 and 20 µM of each compound and together at the same concentrations, was assayed by a commercially available ELISA kit (Thermo Scientific, Italy). […] The optical absorbance was measured with a spectrophotometer microplate reader at 450 nm and correction at 530 nm. Final concentrations were calculated by interpolation with a standard curve of Recombinant Human IL-1α provided by the kit and results expressed as pg/mL.

[3] = DPPH radical scavenging assay; conditions: 0.1 mg/mL; Trolox equivalents
Procedure: The DPPH assay was evaluated according to Aadil (2013) and Bonetti (2016). Fifty microliters of samples (cortisone, SCA and SCB) were added to […] of 0.06 mM of methanolic DPPH· radical solution. The reaction mixture was left to stand at room temperature in the dark for 15 min. The absorbance for the sample (Asample) was measured at 515 nm against methanol blank. A control was the absorbance of DPPH· solution.
Methanolic solutions with different Trolox concentrations (0.05 − 1 mM/L) were analyzed for calibration curve. The free radical scavenging capacity was expressed as micromolar of Trolox equivalents (TEs)/g of SCA and SCB compounds using calibration curve.

[4] = system: primary cultures of rat cerebral cortex neurons; experiment: Glutamate-induced neurotoxicity, MTT viability; format: cell-based; conditions: 10 μM, added 15 min before glutamate; viability 24 h later
Procedure: Primary cultures of cortical neurons have been prepared from 1 day-old male rats [41]. After re-suspension in the plating medium, the cells were counted and then plated on poly-l-lysine (5 μg/mL)-coated dishes at a density of 2.5 × 10^6 cells/dish or on poly-l-lysine (5 μg/mL)-coated 24-well plates at a density of 0.5 × 10^6 cells/dish. The plating medium consisted of Eagle's Basal Medium supplemented with 10% inactivated fetal calf serum, 25 mM KCl, 2 mM glutamine and 100 μg/mL gentamycine. […] Cytosine arabinoside (10 μM) was added within 24 h of plating to prevent glial cell proliferation [41]. The cultures were maintained for 8 days in vitro before experiments.
The cultures were then returned to the incubator in their growth medium. 24 h later, the glutamate-induced neurotoxicity was evaluated by measuring the neuronal viability. The different drugs tested were added 15 min before glutamate exposure and were present until the end of the experiment.
The integrity of mitochondrial enzymes in viable neurons was determined with a colorimetric assay using 3-[4,5-dimethylthial-2-yl]-3, 5-diphenyl-tetrazolinium bromide (MTT) salt, as described by Mosdam [42]. […] The precipitated dye was dissolved in isopropanol with 1 M HCl and colorimetrically (absorbance at 570 nm) quantified. The results were expressed as values of absorbance at 570 nm.

[5] = TA100, + S9, 1 µL/plate of a stock solution 100 mg/mL
[6] = TA100, + S9, 5 µL/plate of a stock solution 100 mg/mL
[7] = TA100, + S9, 10 µL/plate of a stock solution 100 mg/mL
[8] = TA100, + S9, 50 µL/plate of a stock solution 100 mg/mL
[9] = TA100, + S9, 100 µL/plate of a stock solution 100 mg/mL
[10] = TA100, − S9, 1 µL/plate of a stock solution 100 mg/mL
[11] = TA100, − S9, 5 µL/plate of a stock solution 100 mg/mL
[12] = TA100, − S9, 10 µL/plate of a stock solution 100 mg/mL
[13] = TA100, − S9, 50 µL/plate of a stock solution 100 mg/mL
[14] = TA100, − S9, 100 µL/plate of a stock solution 100 mg/mL

Cc1ccc(O)c2c1CCC1C3CC[C@](O)([C@H](O)CO)[C@@]3(C)CC(=O)[C@@]21O (stereo partly drawn) [SCB, 1,9β,17,20β,21‐ pentahydoxy‐4‐methyl‐19‐nor‐9β‐pregna‐1,3,5(10)‐trien‐11‐one]
effect on COX activity (cyclooxygenase (COX)): inhibited COX activity at all concentrations tested in a dose-dependent trend
genotoxic activity (Ames test) [1]: For none of the samples genotoxic activity emerged
average number of revertant colonies [1, 5]: 190
t/c (revertant colonies in treated plates/untreated plates) [1, 5]: 1.0
average number of revertant colonies [1, 6]: 194
t/c (revertant colonies in treated plates/untreated plates) [1, 6]: 1.0
average number of revertant colonies [1, 7]: 193
t/c (revertant colonies in treated plates/untreated plates) [1, 7]: 1.0
average number of revertant colonies [1, 8]: 189
t/c (revertant colonies in treated plates/untreated plates) [1, 8]: 1.0
average number of revertant colonies [1, 9]: 195
t/c (revertant colonies in treated plates/untreated plates) [1, 9]: 1.0
average number of revertant colonies [1, 10]: 157
t/c (revertant colonies in treated plates/untreated plates) [1, 10]: 0.9
average number of revertant colonies [1, 11]: 169
t/c (revertant colonies in treated plates/untreated plates) [1, 11]: 1.0
average number of revertant colonies [1, 12]: 164
t/c (revertant colonies in treated plates/untreated plates) [1, 12]: 1.0
average number of revertant colonies [1, 13]: 169
t/c (revertant colonies in treated plates/untreated plates) [1, 13]: 1.0
average number of revertant colonies [1, 14]: 180
t/c (revertant colonies in treated plates/untreated plates) [1, 14]: 1.1
effect on TNFα-triggered IL-1α release [2]: markedly inhibited
DPPH radical scavenging activity (in words) [3]: high antioxidant property compared with the cortisone precursor
effect on glutamate-induced neurotoxicity (cell viability, MTT) [4]: partially reduced

Cc1ccc(O)c2c1CCC1C3CC[C@](O)(C(=O)CO)[C@@]3(C)CC(=O)[C@@]21O (stereo partly drawn) [SCA, 1,9β,17,21‐tetrahydoxy‐4‐methyl‐19‐nor‐9β‐pregna‐1,3,5(10)‐trien‐11,20‐dione]
effect on COX activity (cyclooxygenase (COX)): barely affected COX activity only at the lower concentration tested (0.1 µM)
genotoxic activity (Ames test) [1]: For none of the samples genotoxic activity emerged
average number of revertant colonies [1, 5]: 179.3
t/c (revertant colonies in treated plates/untreated plates) [1, 5]: 1.0
average number of revertant colonies [1, 6]: 181.7
t/c (revertant colonies in treated plates/untreated plates) [1, 6]: 1.0
average number of revertant colonies [1, 7]: 185.3
t/c (revertant colonies in treated plates/untreated plates) [1, 7]: 1.0
average number of revertant colonies [1, 8]: 205.7
t/c (revertant colonies in treated plates/untreated plates) [1, 8]: 1.1
average number of revertant colonies [1, 9]: 194.3
t/c (revertant colonies in treated plates/untreated plates) [1, 9]: 1.1
average number of revertant colonies [1, 10]: 163.0
t/c (revertant colonies in treated plates/untreated plates) [1, 10]: 1.0
average number of revertant colonies [1, 11]: 164.3
t/c (revertant colonies in treated plates/untreated plates) [1, 11]: 1.0
average number of revertant colonies [1, 12]: 158.0
t/c (revertant colonies in treated plates/untreated plates) [1, 12]: 1.0
average number of revertant colonies [1, 13]: 157.0
t/c (revertant colonies in treated plates/untreated plates) [1, 13]: 0.9
average number of revertant colonies [1, 14]: 166.7
t/c (revertant colonies in treated plates/untreated plates) [1, 14]: 1.0
effect on TNFα-triggered IL-1α release [2]: markedly inhibited
DPPH radical scavenging activity (in words) [3]: high antioxidant property compared with the cortisone precursor
effect on glutamate-induced neurotoxicity (cell viability, MTT) [4]: partially reduced
